Test results as given in the supplement of paper PMC10627819.

Legend:
B. subtilis 168 [1] = assay: fitness (endpoint OD595 vs no drug) (fraction); higher = more growth
How it was run: (§1)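 Each well of a 384-well plate received 30 µl of culture at OD595 0.01, or 55 µl for S. pneumoniae. TSB, LB Lennox or CY served as media at 37 °C. OD595 was taken every 30 min for 14 h and corrected by subtracting the first reading. Fitness is the optical density at stationary-phase entry divided by the robust mean of no-drug controls, capped at 1.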

S. pneumoniae D39V [2] = assay: as above
How it was run: as §1

B. subtilis 168 [3] = assay: Bliss interaction score (quartile over a dose matrix) (fitness difference); higher = more antagonism (negative = synergy)
How it was run: (§2)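 Each OD595 reading at entry into stationary phase was scaled to the robust mean of the untreated wells on its plate, with a ceiling of 1. These ratios define fitness, and single-drug fitness was inferred from combinations. The Bliss score compares observed fitness with the product-based expectation and is reported as quartiles across all replicate types, technical, biological and donor/recipient.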

S. aureus DSM 20231 = assay: as above
How it was run: as §2

S. aureus Newman = assay: as above
How it was run: as §2

S. pneumoniae D39V [4] = assay: as above
How it was run: as §2
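Wherever Bliss interaction score (quartile over a dose matrix) is given: first quartile when negative (synergy) and third quartile when positive (antagonism).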

CCC[C@@H]1C[C@@H](C(=O)N[C@@H]([C@H]2O[C@H](SC)[C@H](O)[C@@H](O)[C@H]2O)[C@@H](C)O)N(C)C1 [Lincomycin] + CN(C)c1cc(NC(=O)CNC(C)(C)C)c(O)c2c1C[C@H]1C[C@H]3[C@H](N(C)C)C(O)=C(C(N)=O)C(=O)[C@@]3(O)C(O)=C1C2=O [Tigecycline]
fitness
Conditions | first compound 0.1 µg/mL | first compound 0.2 µg/mL | first compound 0.215 µg/mL | first compound 0.4 µg/mL | first compound 0.43 µg/mL | first compound 0.8 µg/mL | first compound 0.86 µg/mL
B. subtilis 168 [1], partner 0.039 µg/mL | 0.894 | 0.865 | – | 0.979 | – | – | –
B. subtilis 168 [1], partner 0.078 µg/mL | 0.953 | 0.861 | – | 0.897 | – | – | –
B. subtilis 168 [1], partner 0.156 µg/mL | 0.924 | 0.867 | – | 0.846 | – | – | –
S. pneumoniae D39V [2], partner 0.65 µg/mL | – | 0.637 | 0.804 | 0.572 | 0.745 | 0.275 | 0.238
S. pneumoniae D39V [2], partner 1.3 µg/mL | – | 0.63 | 0.789 | 0.578 | 0.694 | 0.314 | 0.213
S. pneumoniae D39V [2], partner 2.6 µg/mL | – | 0.618 | 0.802 | 0.572 | 0.648 | 0.186 | 0.156

fitness, B. subtilis 168 [1], one replicate
Conditions | first compound 0.4 µg/mL | first compound 0.8 µg/mL | first compound 1.6 µg/mL
partner 0.125 µg/mL | 0.977 | ≥ 1 | 0.944
partner 0.25 µg/mL | 0.856 | 0.886 | 0.845
partner 0.5 µg/mL | 0.867 | 0.888 | 0.907

Conditions | Bliss interaction score
B. subtilis 168 [3] | -0.076
S. aureus DSM 20231 | -0.213
S. aureus Newman | 0.0588
S. pneumoniae D39V [4] | -0.133

CCC[C@@H]1C[C@@H](C(=O)N[C@@H]([C@H]2O[C@H](SC)[C@H](O)[C@@H](O)[C@H]2O)[C@@H](C)O)N(C)C1 [Lincomycin] + CN[C@@H]1[C@H](O[C@H]2[C@H](O[C@H]3[C@H](O)[C@@H](O)[C@H](N=C(N)N)[C@@H](O)[C@@H]3N=C(N)N)O[C@@H](C)[C@]2(O)C=O)O[C@@H](CO)[C@H](O)[C@H]1O [Streptomycin]
fitness
Conditions | first compound 0.1 µg/mL | first compound 0.2 µg/mL | first compound 0.215 µg/mL | first compound 0.4 µg/mL | first compound 0.43 µg/mL | first compound 0.8 µg/mL | first compound 0.86 µg/mL
B. subtilis 168 [1], partner 2 µg/mL | 0.935 | 0.913 | – | 0.9 | – | – | –
B. subtilis 168 [1], partner 8 µg/mL | – | – | – | 0.0442 | – | – | –
S. pneumoniae D39V [2], partner 2 µg/mL | – | – | 0.768 | – | 0.681 | – | 0.231
S. pneumoniae D39V [2], partner 4 µg/mL | – | 0.699 | 0.784 | 0.627 | 0.686 | 0.305 | 0.284
S. pneumoniae D39V [2], partner 8 µg/mL | – | 0.588 | 0.796 | 0.539 | 0.667 | 0.203 | 0.195

fitness, S. pneumoniae D39V [2], one replicate
Conditions | first compound 0.2 µg/mL | first compound 0.4 µg/mL | first compound 0.8 µg/mL
partner 2 µg/mL | 0.759 | 0.7 | 0.421
partner 16 µg/mL | 0.509 | 0.369 | 0.0724

Conditions | Bliss interaction score
B. subtilis 168 [3] | 0.105
S. aureus DSM 20231 | -0.107
S. aureus Newman | 0.0761
S. pneumoniae D39V [4] | -0.129

COc1c(N2C[C@@H]3CCCN[C@@H]3C2)c(F)cc2c(=O)c(C(=O)O)cn(C3CC3)c12 [Moxifloxacin] + CCC(C)C1C(=O)NC(=C)C(=O)NC(C(=O)NC(CSCC(C(=O)N1)NC(=O)/C(=C/C)/NC(=O)C(C(C)CC)N)C(=O)NC2C(SCC(NC(=O)CNC(=O)C3CCCN3C2=O)C(=O)NC(CCCCN)C(=O)NC4C(SCC(NC(=O)CNC(=O)C(NC(=O)C(NC(=O)C(NC(=O)CNC4=O)C)CC(C)C)CCSC)C(=O)NC(CC(=O)N)C(=O)NC(CCSC)C(=O)NC(CCCCN)C(=O)NC5C(SCC6C(=O)NC(C(=O)NC(CSC(C(C(=O)N6)NC(=O)C(NC5=O)C)C)C(=O)NC(CO)C(=O)NC(C(C)CC)C(=O)NC(CC7=CN=CN7)C(=O)NC(C(C)C)C(=O)NC(=C)C(=O)NC(CCCCN)C(=O)O)CC8=CN=CN8)C)C)C)CC(C)C [Nisin]
main component drawn
Conditions | fitness
B. subtilis 168 [1], first compound 0.0312 µg/mL, partner 0.5 µg/mL | 0.0551
B. subtilis 168 [1], first compound 0.0312 µg/mL, partner 1 µg/mL | 0.0324
B. subtilis 168 [1], first compound 0.0312 µg/mL, partner 2 µg/mL | 0.0208
B. subtilis 168 [1], first compound 0.0625 µg/mL, partner 0.5 µg/mL | 0.0449
B. subtilis 168 [1], first compound 0.0625 µg/mL, partner 1 µg/mL | 0.0306
B. subtilis 168 [1], first compound 0.0625 µg/mL, partner 2 µg/mL | 0.022
B. subtilis 168 [1], first compound 0.125 µg/mL, partner 0.5 µg/mL | 0.0446
B. subtilis 168 [1], first compound 0.125 µg/mL, partner 1 µg/mL | 0.0343
B. subtilis 168 [1], first compound 0.125 µg/mL, partner 2 µg/mL | 0.0231
S. pneumoniae D39V [2], first compound 0.0037 µg/mL, partner 0.4275 µg/mL | 0.993
S. pneumoniae D39V [2], first compound 0.0037 µg/mL, partner 0.855 µg/mL | 0.986
S. pneumoniae D39V [2], first compound 0.0037 µg/mL, partner 1.71 µg/mL | 0.0722
S. pneumoniae D39V [2], first compound 0.005 µg/mL, partner 6.4 µg/mL | 0.0381
S. pneumoniae D39V [2], first compound 0.0075 µg/mL, partner 0.4275 µg/mL | 0.971
S. pneumoniae D39V [2], first compound 0.0075 µg/mL, partner 0.855 µg/mL | 0.974
S. pneumoniae D39V [2], first compound 0.0075 µg/mL, partner 1.71 µg/mL | 0.0723
S. pneumoniae D39V [2], first compound 0.01 µg/mL, partner 6.4 µg/mL | 0.0415
S. pneumoniae D39V [2], first compound 0.015 µg/mL, partner 0.4275 µg/mL | 0.898
S. pneumoniae D39V [2], first compound 0.015 µg/mL, partner 0.855 µg/mL | 0.922
S. pneumoniae D39V [2], first compound 0.015 µg/mL, partner 1.71 µg/mL | 0.089
S. pneumoniae D39V [2], first compound 0.02 µg/mL, partner 6.4 µg/mL | 0.0317

fitness, B. subtilis 168 [1], one replicate, main component drawn
Conditions | first compound 0.0312 µg/mL | first compound 0.0625 µg/mL | first compound 0.125 µg/mL | first compound 2 µg/mL | first compound 4 µg/mL | first compound 8 µg/mL
partner 0.5 µg/mL | – | – | – | 0.0297 | 0.0204 | 0.0134
partner 1 µg/mL | – | – | – | 0.0435 | 0.031 | 0.0236
partner 1.25 µg/mL | 0.0287 | 0.0387 | 0.0145 | – | – | –
partner 1.6 µg/mL | 0.0362 | 0.0251 | 0.0203 | – | – | –
partner 2 µg/mL | – | – | – | 0.0532 | 0.0341 | 0.0259
partner 2.5 µg/mL | 0.037 | 0.0186 | 0.0151 | – | – | –
partner 3.2 µg/mL | 0.0222 | 0.0273 | 0.0354 | – | – | –
partner 4 µg/mL | – | – | – | 0.0258 | 0.0254 | 0.0138
partner 5 µg/mL | 0.0373 | 0.0148 | 0.0138 | – | – | –
partner 6.4 µg/mL | 0.0438 | 0.0244 | 0.0155 | – | – | –
partner 8 µg/mL | – | – | – | 0.0213 | 0.0075 | 0.0166
partner 16 µg/mL | – | – | – | 0.008 | 0.0061 | 0.0096

main component drawn
Conditions | Bliss interaction score
B. subtilis 168 [3] | 0.0196
S. aureus DSM 20231 | 0.0667
S. aureus Newman | -0.0568
S. pneumoniae D39V [4] | 0.116
